In US20240208961A1, “EIF4E INHIBITORS AND USES THEREOF” (PIC Therapeutics, Inc., priority 2022, published 2024):
“And” between values parts separate entries of the source, which are not always exact repeats. Identical values can stand only once. Like-named read-outs stand apart in the source and are kept apart here.

Tests used:
[1] = Pharmacokinetic studies of certain compounds in female Balb/c mice (Example 5); format: in vivo; conditions: for concentration at 0.5 hr / concentration at 1 hr / concentration at 2 hr / concentration at 4 hr: BALB/c
Method: Pharmacokinetic studies were performed using Balb/c mice, 15-20 g, 6-9 weeks, female, N=9, purchased from Jihui Laboratory Animal Co. LTD. For compound I-29, Balb/c mice, 19-21 g, 9-11 weeks, female, N=9, were used. The mice were fasted overnight and fed at 4 h post dosing.
Animals were dosed via oral gavage (PO) or tail vein injection (IV) with compound. Sampling occurred at 0.083, 0.25, 0.5, 1, 2, 4, 8, and 24 h post dose (8 time points). The animals were restrained manually at the designated time points. Approx. […] of blood was taken from the animals via facial vein for semi-serial bleeding into tubes with K2EDTA. Blood samples were put on ice and centrifuged at 4° C. (2000 g, 5 min) to obtain plasma within 15 min after sample collection. Plasma samples were stored in dry ice temporarily and at approximately −70° C. until analysis.
For oral gavage, the compound was dosed as a suspension in 1% sodium carboxymethyl cellulose (CMC) and 0.2% Tween 80 in water. For 23.8 mg/kg and 30 mg/kg doses, 3 mg/mL was used; for 50 mg/kg doses, 5 mg/mL was used; and for 100 mg/kg doses, 10 mg/mL was used.
For IV administration, the compound was dosed as a solution in 5% DMSO, 5% Solutol HS15 and 90% saline. For 1 mg/kg and 1.48 mg/kg doses, 0.2 mg/mL was used.
Plasma samples were analyzed using LC-MS using a calibration curve of known concentrations.
The results of these studies are summarized in Tables 11-21 below and in FIGS. 2-8. […] BQL=below quantifiable limit for compound in female Balb/c mouse plasma samples. NA=not available. PK parameters were estimated by non-compartmental model using WinNonlin 8.2. If the adjusted rsq (linear regression coefficient of the concentration value on the terminal phase) was less than 0.9, T1/2 might not have been accurately estimated. F value was determined by the following equation: • If AUClast/AUCINF>80%:
F=(AUCINF-EX×DOSEIV)/(AUCINF-IV×DOSEEX)[…] • If AUClast/AUCINF<80% or AUCINF not available:
F=(AUClast-EX×DOSEIV)/(AUClast-IV×DOSEEX)*1000

[2] = test system: ZR-75-1; experiment: Cell viability assay, adherent cell line, 5 day Alamar Blue (Example 8): ZR-75-1; format: cell-based; conditions: Homo sapiens, 120 h, ZR-75-1, Breast Cancer Cell Viability
Method: Cell viability assays were performed on certain compounds of the disclosure, according to the following procedure.
Cell line specific media conditions used:
The procedure for adherent cell line compound screening was as follows:
• Cells were seeded in 96-well cell culture treated tissue culture plates: ZR-75-1, NIHOVCAR3, T47D, and LOVO cells 4000 cells/well; and HPAFII 3000 cell/well
Day 3: Compound Dilution and Dosing
• 5-fold serial dilution (8 point) of each compound in DMSO 0-25 mM in compound storage plates was prepared (stored at −80° C. if not to be used immediately). • Cells were rinsed with 1% FBS Media (appropriate to cell line as described above) and replaced with 87.5 μL media prior to dosing. HPAFII was screened in normal 10% FBS Media. • DMSO compound dilution series was diluted in 1% FBS media (appropriate to cell line as described above)—2 μL in 248 μL to give an 8× final concentration. • Cells were dosed 12.5 μL/well in triplicate to give final dose curved on cells 0-25 μM. • Media blank 100 μL/well×8 was set up. • All plates were incubated at 37° C.
Day 8: 5 Day Viability Assay
• Alamar Blue viability reagent was added (10 μL per well) and incubated for 3 hours at 37° C. prior to fluorescence detection (Ex560 nm/Em590 nm) on a Varioskan Lux multimode plate reader.
Results from cell viability assays are summarized in Table 23, wherein A represents IC50≤1 μM; B represents 1 μM<IC50≤8 μM; and C represents IC50>8 μM. Blank cells indicate that the compound was not tested in a particular assay.

[3] = mouse, plasma, I-2 PO 100 mg/kg

CC(C)Cc1sc(Nc2ncc(-c3cccs3)cc2C(=O)O)nc1C1=CCCCC1 [Compound I-2]
Plasma concentration Individual ([1]; I-2 PO 30 mg/kg, 0.083 hr, 30 mg/kg): 106 ng/mL and 211 ng/mL and 94.1 ng/mL
Plasma concentration Individual ([1]; I-2 PO 30 mg/kg, 0.25 hr, 30 mg/kg): 663 ng/mL and 622 ng/mL
Plasma concentration Individual ([1]; I-2 PO 30 mg/kg, 0.5 hr, 30 mg/kg): 1380 ng/mL and 1170 ng/mL
Plasma concentration Individual ([1]; I-2 PO 30 mg/kg, 1 hr, 30 mg/kg): 2110 ng/mL and 1590 ng/mL
Plasma concentration Individual ([1]; I-2 PO 30 mg/kg, 2 hr, 30 mg/kg): 2640 ng/mL and 2190 ng/mL
Plasma concentration Individual ([1]; I-2 PO 30 mg/kg, 4 hr, 30 mg/kg): 1600 ng/mL
Plasma concentration Individual ([1]; I-2 PO 30 mg/kg, 8 hr, 30 mg/kg): 233 ng/mL and 261 ng/mL
Plasma concentration Individual ([1]; I-2 PO 30 mg/kg, 24 hr, 30 mg/kg): 7.09 ng/mL and 5.63 ng/mL
Plasma concentration Individual ([1]; I-2 PO 100 mg/kg, 0.083 hr, 100 mg/kg): 406 ng/mL and 159 ng/mL and 182 ng/mL
Plasma concentration Individual ([1]; I-2 PO 100 mg/kg, 0.25 hr, 100 mg/kg): 1310 ng/mL and 2360 ng/mL and 885 ng/mL
Plasma concentration Individual ([1]; I-2 PO 100 mg/kg, 0.5 hr, 100 mg/kg): 3290 ng/mL and 2960 ng/mL
Plasma concentration Individual ([1]; I-2 PO 100 mg/kg, 1 hr, 100 mg/kg): 3010 ng/mL and 3120 ng/mL
Plasma concentration Individual ([1]; I-2 PO 100 mg/kg, 2 hr, 100 mg/kg): 4510 ng/mL and 3430 ng/mL
Plasma concentration Individual ([1]; I-2 PO 100 mg/kg, 4 hr, 100 mg/kg): 3380 ng/mL and 1660 ng/mL and 2310 ng/mL
Plasma concentration Individual ([1]; I-2 PO 100 mg/kg, 8 hr, 100 mg/kg): 914 ng/mL and 861 ng/mL
Plasma concentration Individual ([1]; I-2 PO 100 mg/kg, 24 hr, 100 mg/kg): 19.7 ng/mL and 18.8 ng/mL and 37.7 ng/mL
concentration at 0.5 hr ([1]; female, mouse, plasma, po, 30 mg/kg, I-2 PO 30 mg/kg, 0.5 hr, read-out: Plasma concentration Individual): 1160 ng/mL
concentration at 0.5 hr ([1]; female, mouse, plasma, po, 30 mg/kg, I-2 PO 30 mg/kg, 0.5 hr, read-out: Plasma concentration Mean): 1240 ng/mL
concentration at 1 hr ([1]; female, mouse, plasma, po, 30 mg/kg, I-2 PO 30 mg/kg, 1 hr, read-out: Plasma concentration Individual): 1700 ng/mL
concentration at 1 hr ([1]; female, mouse, plasma, po, 30 mg/kg, I-2 PO 30 mg/kg, 1 hr, read-out: Plasma concentration Mean): 1800 ng/mL
concentration at 2 hr ([1]; female, mouse, plasma, po, 30 mg/kg, I-2 PO 30 mg/kg, 2 hr, read-out: Plasma concentration Individual): 2150 ng/mL
concentration at 2 hr ([1]; female, mouse, plasma, po, 30 mg/kg, I-2 PO 30 mg/kg, 2 hr, read-out: Plasma concentration Mean): 2330 ng/mL
concentration at 4 hr ([1]; female, mouse, plasma, po, 30 mg/kg, I-2 PO 30 mg/kg, 4 hr, read-out: Plasma concentration Individual): 1340 ng/mL
concentration at 4 hr ([1]; female, mouse, plasma, po, 30 mg/kg, I-2 PO 30 mg/kg, 4 hr, read-out: Plasma concentration Mean): 1510 ng/mL
concentration at 0.083 h ([1]; female, Balb/c, mouse, plasma, po, 30 mg/kg, I-2 PO 30 mg/kg, 0.083 hr, read-out: Plasma concentration Mean): 137 ng/mL
concentration at 0.25 h ([1]; female, Balb/c, mouse, plasma, po, 30 mg/kg, I-2 PO 30 mg/kg, 0.25 hr, read-out: Plasma concentration Individual): 472 ng/mL
concentration at 0.25 h ([1]; female, Balb/c, mouse, plasma, po, 30 mg/kg, I-2 PO 30 mg/kg, 0.25 hr, read-out: Plasma concentration Mean): 586 ng/mL
concentration at 8 hr ([1]; female, Balb/c, mouse, plasma, po, 30 mg/kg, I-2 PO 30 mg/kg, 8 hr, read-out: Plasma concentration Individual): 244 ng/mL
concentration at 8 h ([1]; female, Balb/c, mouse, plasma, po, 30 mg/kg, I-2 PO 30 mg/kg, 8 hr, read-out: Plasma concentration Mean): 246 ng/mL
concentration at 24 h ([1]; female, Balb/c, mouse, plasma, po, 30 mg/kg, I-2 PO 30 mg/kg, 24 hr, read-out: Plasma concentration Individual): 4.28 ng/mL
concentration at 24 h ([1]; female, Balb/c, mouse, plasma, po, 30 mg/kg, I-2 PO 30 mg/kg, 24 hr, read-out: Plasma concentration Mean): 5.67 ng/mL
concentration at 0.083 h ([1]; female, Balb/c, mouse, plasma, po, 100 mg/kg, I-2 PO 100 mg/kg, 0.083 hr, read-out: Plasma concentration Mean): 249 ng/mL
concentration at 0.25 h ([1]; female, Balb/c, mouse, plasma, po, 100 mg/kg, I-2 PO 100 mg/kg, 0.25 hr, read-out: Plasma concentration Mean): 1520 ng/mL
concentration at 0.5 h ([1]; female, Balb/c, mouse, plasma, po, 100 mg/kg, I-2 PO 100 mg/kg, 0.5 hr, read-out: Plasma concentration Individual): 2800 ng/mL
concentration at 0.5 h ([1]; female, Balb/c, mouse, plasma, po, 100 mg/kg, I-2 PO 100 mg/kg, 0.5 hr, read-out: Plasma concentration Mean): 3020 ng/mL
concentration at 1 h ([1]; female, Balb/c, mouse, plasma, po, 100 mg/kg, I-2 PO 100 mg/kg, 1 hr, read-out: Plasma concentration Individual): 4550 ng/mL
concentration at 1 h ([1]; female, Balb/c, mouse, plasma, po, 100 mg/kg, I-2 PO 100 mg/kg, 1 hr, read-out: Plasma concentration Mean): 3560 ng/mL
concentration at 2 h ([1]; female, Balb/c, mouse, plasma, po, 100 mg/kg, I-2 PO 100 mg/kg, 2 hr, read-out: Plasma concentration Individual): 3810 ng/mL
concentration at 2 h ([1]; female, Balb/c, mouse, plasma, po, 100 mg/kg, I-2 PO 100 mg/kg, 2 hr, read-out: Plasma concentration Mean): 3920 ng/mL
concentration at 4 h ([1]; female, Balb/c, mouse, plasma, po, 100 mg/kg, I-2 PO 100 mg/kg, 4 hr, read-out: Plasma concentration Mean): 2450 ng/mL
concentration at 8 h ([1]; female, Balb/c, mouse, plasma, po, 100 mg/kg, I-2 PO 100 mg/kg, 8 hr, read-out: Plasma concentration Individual): 1080 ng/mL
concentration at 8 h ([1]; female, Balb/c, mouse, plasma, po, 100 mg/kg, I-2 PO 100 mg/kg, 8 hr, read-out: Plasma concentration Mean): 952 ng/mL
concentration at 24 h ([1]; female, Balb/c, mouse, plasma, po, 100 mg/kg, I-2 PO 100 mg/kg, 24 hr, read-out: Plasma concentration Mean): 25.4 ng/mL
AUC(0-inf) ([1]; mouse, plasma, I-2 PO 30 mg/kg): 12500 ng·h/mL
AUC(0-t) ([1]; mouse, plasma, I-2 PO 30 mg/kg): 12500 ng·h/mL
Cmax ([1]; mouse, plasma, I-2 PO 30 mg/kg): 2330 ng/mL
MRT inf ([1]; mouse, plasma, I-2 PO 30 mg/kg): 3.85 h
MRT last ([1]; mouse, plasma, I-2 PO 30 mg/kg): 3.81 h
Tmax ([1]; mouse, plasma, I-2 PO 30 mg/kg): 2 h
half-life ([1]; mouse, plasma, I-2 PO 30 mg/kg): 156 min
AUC(0-inf) [1, 3]: 27200 ng·h/mL
AUC(0-t) [1, 3]: 27100 ng·h/mL
Cmax [1, 3]: 3920 ng/mL
MRT inf [1, 3]: 4.73 h
MRT last [1, 3]: 4.63 h
Tmax [1, 3]: 2 h
half-life [1, 3]: 182 min
IC50 [2]: ≤ 1000 nM
